Reference: PubChem BioAssay (NCI)
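Tested at 5 concentrations; 48 h exposure; 96-well plates; endpoints linearly interpolated, else capped at highest concentration. GI50: concentration for 50% inhibition of growth. TGI is the concentration that stops growth completely.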

Columns and labels:
Experiment in all cases: NCI anticancer screen, dose series, 48 h; in the data active = GI50 below about 0.43 µM; inactive = the rest
786-0 renal = test system: 786-0 renal
A498 renal = test system: A498 renal
A549 NSCLC = test system: A549 NSCLC
ACHN renal = test system: ACHN renal
BT-549 breast = test system: BT-549 breast
CAKI-1 renal = test system: CAKI-1 renal
COLO 205 colon = test system: COLO 205 colon
DU-145 prostate = test system: DU-145 prostate
EKVX NSCLC = test system: EKVX NSCLC
HCC-2998 colon = test system: HCC-2998 colon
HCT-116 colon = test system: HCT-116 colon
HCT-15 colon = test system: HCT-15 colon
HL-60(TB) leukemia = test system: HL-60(TB) leukemia
HOP-62 NSCLC = test system: HOP-62 NSCLC
HOP-92 NSCLC = test system: HOP-92 NSCLC
HS 578T breast = test system: HS 578T breast
HT29 colon = test system: HT29 colon
IGROV1 ovarian = test system: IGROV1 ovarian
K-562 leukemia = test system: K-562 leukemia
KM12 colon = test system: KM12 colon
LOX IMVI melanoma = test system: LOX IMVI melanoma
M14 melanoma = test system: M14 melanoma
MALME-3M melanoma = test system: MALME-3M melanoma
MCF7 breast = test system: MCF7 breast
MDA-MB-231 breast = test system: MDA-MB-231 breast
MDA-MB-435 = test system: MDA-MB-435
MOLT-4 leukemia = test system: MOLT-4 leukemia
NCI-H226 lung = test system: NCI-H226 lung
NCI-H460 lung = test system: NCI-H460 lung
NCI-H522 lung = test system: NCI-H522 lung
NCI/ADR-RES ovarian = test system: NCI/ADR-RES ovarian
OVCAR-3 ovarian = test system: OVCAR-3 ovarian
OVCAR-4 ovarian = test system: OVCAR-4 ovarian
OVCAR-5 ovarian = test system: OVCAR-5 ovarian
OVCAR-8 ovarian = test system: OVCAR-8 ovarian
PC-3 prostate = test system: PC-3 prostate
RPMI-8226 leukemia = test system: RPMI-8226 leukemia
RXF 393 renal = test system: RXF 393 renal
SF-268 CNS = test system: SF-268 CNS
SF-295 CNS = test system: SF-295 CNS
SF-539 CNS = test system: SF-539 CNS
SK-MEL-2 melanoma = test system: SK-MEL-2 melanoma
SK-MEL-28 melanoma = test system: SK-MEL-28 melanoma
SK-MEL-5 melanoma = test system: SK-MEL-5 melanoma
SK-OV-3 ovarian = test system: SK-OV-3 ovarian
SN12C renal = test system: SN12C renal
SNB-19 CNS = test system: SNB-19 CNS
SNB-75 CNS = test system: SNB-75 CNS
SR leukemia = test system: SR leukemia
SW-620 colon = test system: SW-620 colon
T-47D breast = test system: T-47D breast
TK-10 renal = test system: TK-10 renal
U251 CNS = test system: U251 CNS
UACC-257 melanoma = test system: UACC-257 melanoma
UACC-62 melanoma = test system: UACC-62 melanoma
UO-31 renal = test system: UO-31 renal

N/C(=N\c1nc2c(Cl)cc(Cl)cc2s1)C(Cl)(Cl)Cl
26.6 µM: TGI (EKVX NSCLC)
26.3 µM: TGI (LOX IMVI melanoma)
25.8 µM: TGI (HOP-92 NSCLC)
29.4 µM: TGI (A498 renal)
15.8 µM: TGI (DU-145 prostate)
35.4 µM: TGI (OVCAR-3 ovarian)
96.6 µM: TGI (U251 CNS)
71.8 µM: TGI (KM12 colon)
22.2 µM: TGI (ACHN renal)
18.2 µM: TGI (NCI-H460 lung)
19.4 µM: TGI (A549 NSCLC)
75.8 µM: TGI (PC-3 prostate)
> 100 µM: TGI (786-0 renal) | TGI (BT-549 breast) | TGI (CAKI-1 renal) | TGI (HCT-116 colon) | TGI (HCT-15 colon) | TGI (HL-60(TB) leukemia) | TGI (HS 578T breast) | TGI (IGROV1 ovarian) | TGI (K-562 leukemia) | TGI (M14 melanoma) | TGI (MALME-3M melanoma) | TGI (MCF7 breast) | TGI (MDA-MB-231 breast) | TGI (MDA-MB-435) | TGI (MOLT-4 leukemia) | TGI (NCI-H226 lung) | TGI (NCI-H522 lung) | TGI (NCI/ADR-RES ovarian) | TGI (OVCAR-4 ovarian) | TGI (OVCAR-5 ovarian) | TGI (OVCAR-8 ovarian) | TGI (RPMI-8226 leukemia) | TGI (RXF 393 renal) | TGI (SF-268 CNS) | TGI (SF-295 CNS) | TGI (SF-539 CNS) | TGI (SK-MEL-2 melanoma) | TGI (SK-MEL-28 melanoma) | TGI (SK-MEL-5 melanoma) | TGI (SK-OV-3 ovarian) | TGI (SN12C renal) | TGI (SNB-19 CNS) | TGI (SNB-75 CNS) | TGI (SR leukemia) | TGI (SW-620 colon) | TGI (T-47D breast) | TGI (TK-10 renal) | TGI (UACC-257 melanoma) | TGI (UACC-62 melanoma) | TGI (UO-31 renal)
23.6 µM: TGI (HCC-2998 colon)
inactive: GI50 (786-0 renal) > 100 µM | GI50 (A498 renal) 15.3 µM | GI50 (A549 NSCLC) 5.65 µM | GI50 (ACHN renal) 3.59 µM | GI50 (BT-549 breast) 85.5 µM | GI50 (CAKI-1 renal) 9.28 µM | GI50 (COLO 205 colon) 3.46 µM | GI50 (DU-145 prostate) 3.11 µM | GI50 (EKVX NSCLC) 6.01 µM | GI50 (HCC-2998 colon) 6.11 µM | GI50 (HCT-116 colon) 28.1 µM | GI50 (HCT-15 colon) 53.2 µM | GI50 (HL-60(TB) leukemia) 4.91 µM | GI50 (HOP-62 NSCLC) 5.62 µM | GI50 (HOP-92 NSCLC) 2.89 µM | GI50 (HS 578T breast) 17.9 µM | GI50 (HT29 colon) 5.21 µM | GI50 (IGROV1 ovarian) 55.8 µM | GI50 (K-562 leukemia) 55.3 µM | GI50 (KM12 colon) 5.8 µM | GI50 (LOX IMVI melanoma) 3.3 µM | GI50 (M14 melanoma) > 100 µM | GI50 (MALME-3M melanoma) > 100 µM | GI50 (MCF7 breast) 3.02 µM | GI50 (MDA-MB-231 breast) 38.3 µM | GI50 (MDA-MB-435) 61.3 µM | GI50 (MOLT-4 leukemia) 34.6 µM | GI50 (NCI-H226 lung) > 100 µM | GI50 (NCI-H460 lung) 3.63 µM | GI50 (NCI-H522 lung) > 100 µM | GI50 (NCI/ADR-RES ovarian) 88.6 µM | GI50 (OVCAR-3 ovarian) 5.57 µM | GI50 (OVCAR-4 ovarian) 41 µM | GI50 (OVCAR-5 ovarian) 45.2 µM | GI50 (OVCAR-8 ovarian) > 100 µM | GI50 (PC-3 prostate) 12.9 µM | GI50 (RPMI-8226 leukemia) 17 µM | GI50 (RXF 393 renal) 12.5 µM | GI50 (SF-268 CNS) 51.5 µM | GI50 (SF-295 CNS) 11.5 µM | GI50 (SF-539 CNS) 17.2 µM | GI50 (SK-MEL-2 melanoma) > 100 µM | GI50 (SK-MEL-28 melanoma) 29.2 µM | GI50 (SK-MEL-5 melanoma) > 100 µM | GI50 (SK-OV-3 ovarian) 35.4 µM | GI50 (SN12C renal) > 100 µM | GI50 (SNB-19 CNS) 19.4 µM | GI50 (SNB-75 CNS) > 100 µM | GI50 (SR leukemia) 77.4 µM | GI50 (SW-620 colon) 48 µM | GI50 (T-47D breast) 5.4 µM | GI50 (TK-10 renal) 31.7 µM | GI50 (U251 CNS) 6.63 µM | GI50 (UACC-257 melanoma) 22.4 µM | GI50 (UACC-62 melanoma) 26.7 µM | GI50 (UO-31 renal) 25.2 µM
29.7 µM: TGI (HT29 colon)
24.6 µM: TGI (HOP-62 NSCLC)
16.2 µM: TGI (COLO 205 colon)
